In ChEMBL document CHEMBL4507319 (2021):
The source made the active and inactive calls.

Tests used:
[1] = target: T1, Serine/threonine-protein kinase haspin (Homo sapiens) (UniProt Q8TF76); assay: Haspin(h) Eurofins kinase panel; conditions: Compound concentration 1.0 uM
T1 sequence (whole entry): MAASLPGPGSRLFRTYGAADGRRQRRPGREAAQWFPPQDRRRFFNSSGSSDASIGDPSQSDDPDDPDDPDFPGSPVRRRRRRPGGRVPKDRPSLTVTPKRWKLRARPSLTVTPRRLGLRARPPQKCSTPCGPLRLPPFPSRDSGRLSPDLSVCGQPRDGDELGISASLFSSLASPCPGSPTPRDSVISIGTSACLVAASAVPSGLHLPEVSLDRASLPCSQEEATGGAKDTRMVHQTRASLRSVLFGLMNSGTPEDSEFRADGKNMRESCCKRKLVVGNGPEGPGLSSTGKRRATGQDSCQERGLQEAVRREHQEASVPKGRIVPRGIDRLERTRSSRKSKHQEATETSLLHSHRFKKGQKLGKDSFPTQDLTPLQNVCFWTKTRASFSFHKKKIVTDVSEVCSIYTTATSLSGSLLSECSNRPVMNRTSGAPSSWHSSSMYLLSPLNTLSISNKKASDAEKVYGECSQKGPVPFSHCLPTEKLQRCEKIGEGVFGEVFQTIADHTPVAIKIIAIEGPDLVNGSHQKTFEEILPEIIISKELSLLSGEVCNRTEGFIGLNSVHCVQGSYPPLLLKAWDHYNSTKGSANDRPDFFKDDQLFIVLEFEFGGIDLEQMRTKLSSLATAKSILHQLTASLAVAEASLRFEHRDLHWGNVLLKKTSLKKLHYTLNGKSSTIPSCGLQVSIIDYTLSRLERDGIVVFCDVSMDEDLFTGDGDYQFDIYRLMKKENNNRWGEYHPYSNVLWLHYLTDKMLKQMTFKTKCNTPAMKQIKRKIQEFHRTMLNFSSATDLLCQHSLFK

SNU-16 = assay: SNU-16 cell line Proliferation assay; type: functional, Homo sapiens; conditions: time 3 day
[2] = target: PI3K p110 beta/p85 alpha (Homo sapiens) (UniProt P27986+P42338); assay: PI3 Kinase(p110b/p85a)(h) Eurofins kinase panel; type: protein-complex assay; conditions: Compound concentration 1.0 uM
CWR22R = assay: 22Rv1 cell line Proliferation assay; type: functional, Homo sapiens; conditions: time 6 day
[3] = target: T2, Mitogen-activated protein kinase kinase kinase 2 (Homo sapiens) (UniProt Q9Y2U5); assay: MEKK2(h) Eurofins kinase panel; conditions: Compound concentration 1.0 uM
T2 sequence (whole entry): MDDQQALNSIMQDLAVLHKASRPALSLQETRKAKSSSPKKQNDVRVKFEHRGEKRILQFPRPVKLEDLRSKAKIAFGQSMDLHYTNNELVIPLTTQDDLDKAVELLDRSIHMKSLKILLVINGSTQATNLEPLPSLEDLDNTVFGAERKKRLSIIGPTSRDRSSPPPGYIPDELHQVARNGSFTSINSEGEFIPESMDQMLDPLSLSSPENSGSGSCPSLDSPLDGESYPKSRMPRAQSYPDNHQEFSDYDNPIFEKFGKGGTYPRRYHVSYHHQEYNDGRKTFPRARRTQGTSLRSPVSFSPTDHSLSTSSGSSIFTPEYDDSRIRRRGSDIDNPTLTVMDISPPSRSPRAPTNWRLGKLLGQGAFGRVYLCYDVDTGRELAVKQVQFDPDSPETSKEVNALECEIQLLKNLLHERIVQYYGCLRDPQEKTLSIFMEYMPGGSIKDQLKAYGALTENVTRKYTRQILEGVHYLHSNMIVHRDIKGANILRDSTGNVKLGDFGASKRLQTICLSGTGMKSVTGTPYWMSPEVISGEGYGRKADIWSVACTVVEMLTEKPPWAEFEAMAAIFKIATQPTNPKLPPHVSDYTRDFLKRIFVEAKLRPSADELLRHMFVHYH

[4] = target: Mitogen-activated protein kinase 14 (Homo sapiens) (UniProt Q16539); assay: SAPK2a(h) Eurofins kinase panel; conditions: Compound concentration 1.0 uM
[5] = target: Ribosomal protein S6 kinase beta-1 (Homo sapiens) (UniProt P23443); assay: p70S6K(h) Eurofins kinase panel; conditions: Compound concentration 1.0 uM
[6] = target: Macrophage colony-stimulating factor 1 receptor (Homo sapiens) (UniProt P07333); assay: Fms(h) Eurofins kinase panel; conditions: Compound concentration 1.0 uM
[7] = target: Ribosomal protein S6 kinase alpha-1 (Homo sapiens, UniProt Q15418); assay: Eurofins kinase panel (RPS6KA1); design: compound concentration 1 uM
[8] = target: Platelet-derived growth factor receptor alpha (Homo sapiens) (UniProt P16234); assay: PDGFRalpha(h) Eurofins kinase panel; conditions: Compound concentration 1.0 uM
[9] = target: Mitogen-activated protein kinase 11 (Homo sapiens) (UniProt Q15759); assay: SAPK2b(h) Eurofins kinase panel; conditions: Compound concentration 1.0 uM
[10] = target: SRSF protein kinase 1 (Homo sapiens) (UniProt Q96SB4); assay: SRPK1(h) Eurofins kinase panel; conditions: Compound concentration 1.0 uM
[11] = target: Cyclin-dependent kinase 5/CDK5 activator 1 (Homo sapiens) (UniProt Q00535+Q15078); assay: CDK5/p35(h) Eurofins kinase panel; type: protein-complex assay; conditions: Compound concentration 1.0 uM
[12] = target: Calcium/calmodulin-dependent protein kinase type II subunit alpha (Homo sapiens) (UniProt Q9UQM7); assay: CaMKIIalpha(h) Eurofins kinase panel; conditions: Compound concentration 1.0 uM
[13] = target: Protein kinase C alpha type (Homo sapiens) (UniProt P17252); assay: PKCalpha (h) Eurofins kinase panel; conditions: Compound concentration 1.0 uM
[14] = target: NT-3 growth factor receptor (Homo sapiens) (UniProt Q16288); assay: TrkC(h) Eurofins kinase panel; conditions: Compound concentration 1.0 uM
[15] = target: 5'-AMP-activated protein kinase catalytic subunit alpha-2 (Homo sapiens, UniProt P54646); conditions: Compound concentration 1.0 uM
[16] = target: Aurora kinase B (Homo sapiens) (UniProt Q96GD4); assay: Aurora-B(h) Eurofins kinase panel; conditions: Compound concentration 1.0 uM

Chain of Ribosomal protein S6 kinase alpha-1 (Q15418 whole entry): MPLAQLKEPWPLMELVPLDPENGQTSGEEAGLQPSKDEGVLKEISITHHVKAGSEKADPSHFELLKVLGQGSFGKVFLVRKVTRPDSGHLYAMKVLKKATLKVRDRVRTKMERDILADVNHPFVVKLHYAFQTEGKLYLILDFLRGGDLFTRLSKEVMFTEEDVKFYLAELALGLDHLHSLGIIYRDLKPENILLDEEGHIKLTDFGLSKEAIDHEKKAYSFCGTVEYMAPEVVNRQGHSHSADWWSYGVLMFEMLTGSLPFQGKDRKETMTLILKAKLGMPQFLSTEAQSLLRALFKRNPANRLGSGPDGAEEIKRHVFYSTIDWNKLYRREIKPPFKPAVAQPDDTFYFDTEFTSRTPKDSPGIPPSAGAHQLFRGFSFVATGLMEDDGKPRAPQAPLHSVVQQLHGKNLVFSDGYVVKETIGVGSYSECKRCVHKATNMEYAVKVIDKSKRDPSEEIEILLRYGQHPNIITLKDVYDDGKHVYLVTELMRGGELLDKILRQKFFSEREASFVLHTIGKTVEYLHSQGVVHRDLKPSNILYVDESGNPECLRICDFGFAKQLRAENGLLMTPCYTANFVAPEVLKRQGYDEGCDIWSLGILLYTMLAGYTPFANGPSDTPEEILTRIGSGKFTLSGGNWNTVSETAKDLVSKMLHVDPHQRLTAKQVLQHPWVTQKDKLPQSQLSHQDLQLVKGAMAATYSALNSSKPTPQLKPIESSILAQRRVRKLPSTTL
Chain of Ribosomal protein S6 kinase beta-1 (Homo sapiens) (P23443 whole entry, looked up): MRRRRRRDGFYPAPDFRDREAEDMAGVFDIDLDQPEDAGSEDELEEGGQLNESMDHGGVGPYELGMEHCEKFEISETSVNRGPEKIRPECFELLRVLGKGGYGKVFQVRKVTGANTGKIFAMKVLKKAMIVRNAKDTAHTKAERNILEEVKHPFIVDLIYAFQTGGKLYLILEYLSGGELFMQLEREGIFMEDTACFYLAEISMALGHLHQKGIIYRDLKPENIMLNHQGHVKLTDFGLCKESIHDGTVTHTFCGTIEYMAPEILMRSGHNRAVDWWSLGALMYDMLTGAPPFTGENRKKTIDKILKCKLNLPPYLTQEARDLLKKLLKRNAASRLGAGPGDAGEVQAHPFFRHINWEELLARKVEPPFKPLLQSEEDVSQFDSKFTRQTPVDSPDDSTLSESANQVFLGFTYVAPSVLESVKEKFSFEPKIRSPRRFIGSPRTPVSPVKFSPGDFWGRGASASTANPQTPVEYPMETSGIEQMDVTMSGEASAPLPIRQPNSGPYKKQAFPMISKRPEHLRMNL
Chain of Mitogen-activated protein kinase 11 (Homo sapiens) (Q15759 whole entry): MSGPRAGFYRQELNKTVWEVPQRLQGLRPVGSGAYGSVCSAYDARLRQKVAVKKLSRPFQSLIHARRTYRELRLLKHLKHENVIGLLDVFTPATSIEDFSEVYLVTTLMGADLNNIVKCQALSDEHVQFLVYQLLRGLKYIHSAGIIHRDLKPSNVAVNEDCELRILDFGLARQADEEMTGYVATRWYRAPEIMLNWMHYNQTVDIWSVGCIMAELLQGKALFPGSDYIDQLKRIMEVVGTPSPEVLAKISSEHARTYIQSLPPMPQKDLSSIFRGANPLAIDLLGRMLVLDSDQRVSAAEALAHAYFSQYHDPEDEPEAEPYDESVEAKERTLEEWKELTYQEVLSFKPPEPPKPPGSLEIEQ
Chain of Mitogen-activated protein kinase 14 (Homo sapiens) (Q16539 whole entry): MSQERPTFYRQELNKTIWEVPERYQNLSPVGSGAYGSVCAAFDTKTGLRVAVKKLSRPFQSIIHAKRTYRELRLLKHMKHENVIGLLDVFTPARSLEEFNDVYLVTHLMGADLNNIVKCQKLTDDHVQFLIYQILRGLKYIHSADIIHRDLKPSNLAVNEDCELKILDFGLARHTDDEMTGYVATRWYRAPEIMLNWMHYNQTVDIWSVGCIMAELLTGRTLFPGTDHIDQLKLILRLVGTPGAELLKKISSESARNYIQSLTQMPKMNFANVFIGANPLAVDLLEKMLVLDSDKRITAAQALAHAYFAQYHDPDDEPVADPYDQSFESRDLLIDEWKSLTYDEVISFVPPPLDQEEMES
Chain of Platelet-derived growth factor receptor alpha (Homo sapiens) (P16234 whole entry): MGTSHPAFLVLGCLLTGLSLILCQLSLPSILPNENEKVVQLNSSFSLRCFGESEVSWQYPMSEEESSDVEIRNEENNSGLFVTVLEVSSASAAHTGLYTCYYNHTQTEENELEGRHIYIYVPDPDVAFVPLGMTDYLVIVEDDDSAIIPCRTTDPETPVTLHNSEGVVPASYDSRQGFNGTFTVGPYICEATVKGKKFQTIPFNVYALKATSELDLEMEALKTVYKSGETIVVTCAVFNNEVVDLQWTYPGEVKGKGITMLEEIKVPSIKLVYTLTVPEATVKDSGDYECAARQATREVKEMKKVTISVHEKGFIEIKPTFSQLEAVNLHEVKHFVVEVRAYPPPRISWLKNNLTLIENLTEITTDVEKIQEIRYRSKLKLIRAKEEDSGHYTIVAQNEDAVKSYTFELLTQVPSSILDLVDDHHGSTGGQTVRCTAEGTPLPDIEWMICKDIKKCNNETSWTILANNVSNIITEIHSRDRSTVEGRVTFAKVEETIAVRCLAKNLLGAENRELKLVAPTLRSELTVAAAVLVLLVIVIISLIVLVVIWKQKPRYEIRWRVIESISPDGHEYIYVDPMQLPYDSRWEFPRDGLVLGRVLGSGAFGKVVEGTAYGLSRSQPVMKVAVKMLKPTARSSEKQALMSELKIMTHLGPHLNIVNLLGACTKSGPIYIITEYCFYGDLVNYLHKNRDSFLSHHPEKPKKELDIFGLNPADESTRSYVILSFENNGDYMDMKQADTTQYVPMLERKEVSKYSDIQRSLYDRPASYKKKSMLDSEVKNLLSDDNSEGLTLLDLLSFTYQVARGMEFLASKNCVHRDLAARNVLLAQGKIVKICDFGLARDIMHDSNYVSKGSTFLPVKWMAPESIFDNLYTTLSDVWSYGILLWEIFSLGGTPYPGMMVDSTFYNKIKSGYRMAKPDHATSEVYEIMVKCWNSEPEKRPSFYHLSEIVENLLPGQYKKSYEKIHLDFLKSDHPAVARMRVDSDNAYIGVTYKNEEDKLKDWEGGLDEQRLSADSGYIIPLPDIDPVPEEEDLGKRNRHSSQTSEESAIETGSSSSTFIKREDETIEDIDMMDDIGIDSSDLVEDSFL
Chain of Macrophage colony-stimulating factor 1 receptor (Homo sapiens) (P07333 whole entry): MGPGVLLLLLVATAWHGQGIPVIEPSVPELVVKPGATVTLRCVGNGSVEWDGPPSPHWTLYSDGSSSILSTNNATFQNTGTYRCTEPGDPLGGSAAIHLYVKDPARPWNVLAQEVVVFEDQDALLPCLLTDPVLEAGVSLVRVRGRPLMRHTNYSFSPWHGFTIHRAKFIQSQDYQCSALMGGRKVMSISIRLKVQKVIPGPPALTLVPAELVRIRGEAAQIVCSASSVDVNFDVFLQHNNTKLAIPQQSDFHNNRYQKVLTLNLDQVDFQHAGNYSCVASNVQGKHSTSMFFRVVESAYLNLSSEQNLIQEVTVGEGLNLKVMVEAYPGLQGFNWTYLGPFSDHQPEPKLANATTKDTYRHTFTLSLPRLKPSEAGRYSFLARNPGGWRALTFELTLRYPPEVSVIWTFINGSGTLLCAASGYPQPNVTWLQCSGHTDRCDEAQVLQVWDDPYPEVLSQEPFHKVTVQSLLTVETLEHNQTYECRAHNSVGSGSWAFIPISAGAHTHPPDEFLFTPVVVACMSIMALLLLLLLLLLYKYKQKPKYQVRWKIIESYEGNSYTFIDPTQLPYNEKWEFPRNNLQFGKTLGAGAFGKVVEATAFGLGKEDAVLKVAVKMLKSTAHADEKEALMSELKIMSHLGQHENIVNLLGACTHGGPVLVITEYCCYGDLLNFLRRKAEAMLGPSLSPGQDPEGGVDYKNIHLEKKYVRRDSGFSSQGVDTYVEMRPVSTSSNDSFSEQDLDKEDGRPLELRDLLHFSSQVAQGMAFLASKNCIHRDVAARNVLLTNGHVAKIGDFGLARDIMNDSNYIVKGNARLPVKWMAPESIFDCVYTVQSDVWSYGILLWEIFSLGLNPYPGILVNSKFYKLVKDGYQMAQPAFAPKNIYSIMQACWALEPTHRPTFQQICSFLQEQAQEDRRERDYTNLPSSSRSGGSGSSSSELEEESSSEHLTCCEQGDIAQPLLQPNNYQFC

CCc1ccccc1C(=O)Nc1n[nH]c2c(C)c(F)c(C3C(C#N)=C(C)N(C)C(C)=C3C#N)cc12 [BAY-3827]
5.55 µM: Cell Proliferation IC50 (CWR22R)
12 µM: Cell Proliferation IC50 (SNU-16)
active: IC50 [7] 0.0091 µM
inactive: % residual kinase activity [1] 107% | % residual kinase activity [2] 99% | % residual kinase activity [3] 103% | % residual kinase activity [4] 101% | % residual kinase activity [5] 76% | % residual kinase activity [6] 99% | % residual kinase activity [8] 102% | % residual kinase activity [9] 110% | % residual kinase activity [10] 84% | % residual kinase activity [11] 99% | % residual kinase activity [12] 81% | % residual kinase activity [13] 44% | % residual kinase activity [14] 133% | % residual kinase activity [15] 0% | % residual kinase activity [16] 76%
